Data from patent publication US7544700B2, “Pharmaceutically active sulfonamide derivatives bearing both lipophilic and ionisable moieties as inhibitors of protein JunKinases” (Laboratoires Serono SA, priority 2000, dated 2009).

Legend:
GST-JNK3 = GST-JNK3 (Homo sapiens, UniProt P53779); assay: JNK3 in vitro assay (33P incorporation into c-jun, SPA); format: biochemical
Experimental: The phosphorylation of c-jun by JNK2 or JNK3 may be followed by monitoring the incorporation of ^33P into c-jun following the protocol below. The inhibitory activity of the compounds according to formula I, in respect of c-jun phosphorylation through JNK, is determined by calculating the phosphorylation activity of a JNK in the presence or absence of the test compounds according to formula I.
JNK3 and/or -2 assays are performed in 96 well NM plates: incubation of 0.5 μg of recombinant, pre-activated GST-JNK3 or GST-JNK2 with 1 μg of recombinant, biotinylated GST-c-Jun and 2 μM ^33γ-ATP (2 nCi/μl), in the presence or absence of compounds according to formula I and in a reaction volume of 50 μl containing 50 mM Tris-HCl, pH 8.0; 10 mM MgCl2; 1 mM Dithiothreitol, and 100 μM NaVO4. The incubation is performed for 120 min. at R.T and stopped upon addition of 200 μl of a solution containing 250 μg of Streptavidine-coated SPA beads (Amersham, Inc.)*, 5 mM EDTA, 0.1% Triton X-100 and 50 μM ATP, in phosphate saline buffer. After incubation for 60 minutes at RT, beads are sedimented by centrifugation at 1500×g for 5 minutes, resuspended in 200 μl of PBS containing 5 mM EDTA, 0.1% Triton X-100 and 50 μM ATP and the radioactivity measured in a scintillation β counter, following sedimentation of the beads as described above. By replacing biotinylated GST-c Jun with biotinylated GST-1ATF2 or biotinylated myelin basic protein, this assay may also be used to measure inhibition of pre-activated p38 and ERK MAP Kinases, respectively.

JNK1 = JNK1 (Homo sapiens, UniProt P45983); assay: JNK1 inhibition; format: biochemical; conditions: read-out: inhibition (IC50) with regard to JNK1
[1] = tested on: Hela luciferase reporter-c-Jun (HLR-c-Jun) cell lines; assay: C-Jun reporter assay; format: cell-based; conditions: Homo sapiens, MEKK-1 transfected HLR-c-Jun cells
Source text: The phosphorylation of the transcriptional factor, c-jun, by JNK in the MAP kinase signal transduction pathway can be followed via a trans-reporting system such as the commercially available PathDetect® (32).
A trans-reporting system allows one to follow, via Luciferase activity, the activation status of a fusion trans-activator protein. The trans-activator protein consists of the activation domain of the transcriptional factor of interest (c-jun) fused with a yeast transcriptional activator, GAL4 DNA binding domain (dbd). The GAL4 dbd has the advantage that no known mammalian transcriptional factors can bind to it and therefore the background noise of the assay is very low.
In the present case, Hela luciferase reporter-c-Jun (HLR-c-Jun) cell lines which constitutively express GAL4-cJun were used.
The MEKK-1 gene was inserted. MEKK-1 is a MAPKKK which triggers the activation of JNK. Expression of wild type MEKK-1 is sufficient for JNK activation (33).
Once, JNK is activated it can induce the phosphorylation of the c-jun domain of the fusion trans-activator protein (GAL4dbd-cJun) which forms a dimer. The dimer is then is able to bind to a GAL4 upstream activating sequence (GAL4 UAS) of the reporter which activates Luciferase expression.
Luciferase expression is detected by luminescence using a simple assay such as Dual-Luciferase® Reporter Assay System (34) in which Renilla is used as a “control reporter”.
Inhibition of JNK is observed as a decrease in Luciferase expression and detected by a decrease in luminescence.
HLR-c-Jun cells are cultured in DMEM High Glc supplemented with 10% FCS (Sigma), 2 mM Glutamine (Gibco), P/S, Hygromycin b 100 μg/mL and G418 250 μg/mL.
The cell suspensions are diluted with medium to give about 3.5×10^6 cells/mL and […] of cell suspension are put onto 2 10 cm culture dishes containing 9 mL of culture medium.
Transfections • Control: 0.2 μg pTK Renilla, 5.8 μg pBluescript KS, 500 μl OPTIMEM (GOBCO), 18 μl Fugene 6. • Induced: 0.1 μg pMEKK1, 0.2 μg pTK Renilla, 5.7 μg pBluescript KS, 500 μl OPTIEM (GIBCO), 18 μl Fugene 6 30′ RT.
The transfection mixture is added to the plated cells. The plates are incubated over night at 37° C. in a humidified atmosphere of 5% CO2 in air.
A 96 wells plate (100 μl of culture medium per well) is prepared. Negative control (vehicle): 2 μl of DMSO is added to the 100 μl (in triplicate). […]
The medium is removed from the plate and the cells are washed two times with 100 μl PBS. […] The luminometer reading is recorded.
−50 μl of Luciferase Assay Reagent II are injected and readings are recorded at 5 and 10 minutes.
50 μl of Stop & Glo® Reagent are injected and readings are recorded at 5 and 10 minutes.
The relative luminescence is then measured: RLU Luciferase/RLU Renilla.

Chain of GST-JNK3 (P53779 whole entry): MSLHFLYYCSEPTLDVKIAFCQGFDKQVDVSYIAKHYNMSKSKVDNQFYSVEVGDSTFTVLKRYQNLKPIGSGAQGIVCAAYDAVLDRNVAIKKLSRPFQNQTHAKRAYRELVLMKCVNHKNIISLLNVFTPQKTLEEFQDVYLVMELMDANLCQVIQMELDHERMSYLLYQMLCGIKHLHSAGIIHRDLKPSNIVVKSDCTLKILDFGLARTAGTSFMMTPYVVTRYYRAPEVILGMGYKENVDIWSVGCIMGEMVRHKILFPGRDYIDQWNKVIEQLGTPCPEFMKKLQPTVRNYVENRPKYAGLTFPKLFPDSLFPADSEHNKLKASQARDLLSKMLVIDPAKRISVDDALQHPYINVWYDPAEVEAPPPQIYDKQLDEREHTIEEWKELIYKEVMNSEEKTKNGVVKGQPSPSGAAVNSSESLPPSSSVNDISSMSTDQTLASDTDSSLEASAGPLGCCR
Chain of JNK1 (P45983 whole entry, species assumed): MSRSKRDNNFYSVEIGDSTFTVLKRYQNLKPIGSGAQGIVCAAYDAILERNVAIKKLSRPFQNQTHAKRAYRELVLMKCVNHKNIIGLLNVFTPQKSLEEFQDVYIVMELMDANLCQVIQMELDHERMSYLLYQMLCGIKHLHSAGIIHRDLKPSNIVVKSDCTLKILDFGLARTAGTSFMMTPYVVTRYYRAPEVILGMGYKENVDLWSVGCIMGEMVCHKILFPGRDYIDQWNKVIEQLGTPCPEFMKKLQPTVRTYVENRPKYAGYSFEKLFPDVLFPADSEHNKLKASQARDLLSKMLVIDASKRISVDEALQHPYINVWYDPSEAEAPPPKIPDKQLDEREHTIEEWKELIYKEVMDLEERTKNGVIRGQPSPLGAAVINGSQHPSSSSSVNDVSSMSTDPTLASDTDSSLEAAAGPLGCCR

IC50 (GST-JNK3): < 0.6 µM
IC50 (JNK1): 0.1 to 0.7 µM
IC50 [1]: < 0.7 µM
SMILES: COc1cccc(C(=O)NCc2ccc(S(=O)(=O)N3CCC(NCc4ccc(C(F)(F)F)cc4)CC3)s2)c1 [Example 1, 3-Methoxy-N-{[5-({4-[(4-trifluoromethylbenzyl)amino]piperidin-1-yl}sulfonyl)thien-2-yl]methyl}benzamide]
